Among the data in publication PMC9224243, “Palmitic Amide Triggers Virus Life Cycle via Enhancing Host Energy Metabolism” (Frontiers in Microbiology, 2022) are Kd values, retold here.

For this test, the system named is T1, acetate kinase.
T1 construct: gene ackA; purified recombinant acetate kinase
The test is described as follows: ITC at […]°C ([…] protein, […] compound); also bead pull-down with MS and Western blot, and increased activity of the purified enzyme at […]. In kind it is binding, Geobacillus sp. E263.

Usually Kd stands for a measure of binding affinity in units of concentration. A low value points to tighter binding. The compound `CCCCCCCCCCCCCCCC(N)=O` [palmitic amide] gave a Kd of 13.2 ± 28.1 µM.
